Earlier results on two compounds are cited in publication PMC9792171, “Design and synthesis of new thiazolidinone/uracil derivatives as antiproliferative agents targeting EGFR and/or BRAF^V600E” (Frontiers in Chemistry, 2022).

Structures are written as SMILES.

In data set [1] the test system is lung cancer (A549) cell line. On the set-up: method as in Aziz et al., 2021. The following applies: ref Aziz et al., 2021; read-out: IC50 against lung cancer (A549) cell line; cited from earlier work.
A further data set addresses T1, EGFR (Homo sapiens, UniProt P00533).
T1 construct: EGFR cytoplasmic domain (EGFR-CD, amino acids 645–1186); His6 (N); made in house; host or cells: Sf-9 insect cells (baculovirus; pBlueBacHis2B and pFASTBacHTc)
Set-up: method as in Aziz et al., 2021. The conditions noted are these: ref Aziz et al., 2021; cited from earlier work.

For data set [2], the system named is human lung carcinoma cell lines. On the set-up: method as in Xiong et al., 2008. The following applies: panel of human lung carcinoma cell lines; ref Xiong et al., 2008; read-out: IC50, inhibition of cell proliferation; cited from earlier work.

T1 sequence (P00533 669-1210): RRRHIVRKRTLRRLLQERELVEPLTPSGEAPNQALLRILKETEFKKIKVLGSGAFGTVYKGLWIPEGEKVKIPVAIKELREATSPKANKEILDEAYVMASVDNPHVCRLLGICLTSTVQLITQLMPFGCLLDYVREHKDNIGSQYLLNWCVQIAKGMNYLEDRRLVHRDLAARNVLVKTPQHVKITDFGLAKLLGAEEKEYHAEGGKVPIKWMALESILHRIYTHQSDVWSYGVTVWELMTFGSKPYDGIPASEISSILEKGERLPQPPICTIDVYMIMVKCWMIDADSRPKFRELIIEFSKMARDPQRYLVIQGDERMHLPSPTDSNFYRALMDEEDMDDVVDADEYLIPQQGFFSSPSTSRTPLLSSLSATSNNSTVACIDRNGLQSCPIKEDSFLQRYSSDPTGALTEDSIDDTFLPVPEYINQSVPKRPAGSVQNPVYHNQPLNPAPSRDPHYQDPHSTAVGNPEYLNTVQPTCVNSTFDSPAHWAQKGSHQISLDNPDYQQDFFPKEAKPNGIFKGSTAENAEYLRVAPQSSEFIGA

In the case of `O=C1N=C(Nn2c(-c3ccccc3)nc3ccccc3c2=O)S/C1=C/c1ccccc1` [Compound III], the IC50 is 720 nM in data set [1] and 65 nM on EGFR. For the compound `COC(=O)c1ccccc1NC(=S)N(CCN1CCCCC1)Cc1cc2cc(C)ccc2[nH]c1=O` [DC27], the IC50 in data set [2] is 2500 to 12900 nM.
